Blank lines part the entries; values can stand above or below the compound they belong to.
Experiments:
[1] = system: RETN (human resistin gene); experiment: resistin siRNA transfection of HepG2 cells; type: cell-based; conditions: 10 nM siRNA, 24 or 48 hours
Experimental: HepG2 cells were seeded 200,000 cells per well in a 6-well plate in 2300 uL of 10% FBS DMEM with antibiotics. Awaiting transfection, the cells were placed at 37° C. and 5% CO2. Next, 300 ng of siRNA against RETN (human resistin gene), with the sequence 5′[…] (SEQ ID NO: 5), purchased from Qiagen, MD, was diluted in 100 uL of serum free DMEM which yielded a final concentration of 10 nM once added to cells. 12 uL of HiPerfect Transfection reagent (Qiagen) was also added to the siRNA and mixed by pipetting. The siRNA mixture was allowed to form transfection complexes by incubation at room temperature for 7 minutes. The complexes were then added drop wise to the cells and incubated at 37° C. and 5% CO2 for 24 or 48 hours before harvest. Transfection efficiency was quantitatively measured by the fluorescently labeled scrambled negative control siRNA (Qiagen). siRNA knockdown efficiency was measured by positive control siGAPDH (Qigen) at the transcript and protein levels.

[2] = system: HepG2 cells; experiment: cell viability, tryphan blue staining; type: cell-based, human; conditions: 1.3 nM
Experimental: Cell viability was determined with 0.4% tryphan blue (Sigma-Aldrich, ON) staining and calculated using the following formula: % Cell Viability=(number of unstained (living) cells/Total number of cells)×100.
The next question was whether this amount of human resistin is toxic to hepatocytes. Tryphan blue staining of HepG2 cells upon 50 ng/mL of resistin treatment to determine cell viability was performed.

[3] = system: HepG2 cells; experiment: real-time quantitative PCR of mRNA expression; type: cell-based, human; conditions: CP-346086 1.3 nM, 24 hours
Experimental: Total RNA was isolated from cell lysates (RNeasy Mini Kit, Qiagen, Germantown, Md.) and used as a template for cDNA synthesis (QuantiTech Reverse Transcription Kit, Qiagen, Germantown, Md.). Quantitative real-time PCR was performed using an Applied Biosystems 7300 Real Time PCR system (Carlsbad, Calif.) according to the manufacturer's instructions and with the SYBR green master kit (Qiagen, Germantown, Md.). Primers for the real-time PCR internal control gene cyclophilin A (sense, 5′-[…]-3′ (SEQ ID NO:3); antisense, 5′-[…]-3′ (SEQ ID NO:4)) were synthesized (IDT, Coralville, Iowa). Primers for succinate degydrogenase (SDH) (another real-time PCR internal control gene), apoB, microsomal triglyceride transfer protein (MTP), Srebp1, Srebp2, acetyl-coA carboxylase (ACC), HMG-coA reductase, HMG-coA synthase, squalene synthase (SS), the LDL receptor, PCSK9, fatty acid synthase (FAS), […] (SCD), DGAT1 and DGAT2 were purchased (proprietary sequences not available) (Qiagen, Germantown, Md.). The values reported for each mRNA were corrected to the cyclophilin A and SDH mRNA values.
Total RNA was isolated from cell lysates (RNeasy Mini Kit, Qiagen, MD) and used as a template for cDNA synthesis (QuantiTech Reverse Transcription Kit, Qiagen, MD). Quantitative real-time PCR was performed using an Applied Biosystems 7300 Real-Time PCR system (Carlsbad, Calif.) according to the manufacturer's instructions and with the SYBR green kit (Qiagen, MD). Primers for the real-time PCR internal control gene cyclophilin A, as identified in Example 1, were synthesized (IDT, IA). Primers for succinate dehydrogenase (SDH) (another real-time PCR internal control gene), SREBP2, HMG-CoA reductase, the LDL receptor and PCSK9 were purchased (proprietary sequences not available) (Qiagen, MD). The values reported for each mRNA were corrected to the cyclophilin A and SDH mRNA values.

[4] = system: HepG2 cells; experiment: immunoblotting for LDL receptor and PCSK9 in HepG2 cells
Experimental: Cells were propagated in 10% FBS-containing DMEM supplemented with 1% penicillin-streptomycin and 0.06% L-glutamine (584 mg/L) at 37° C., 5% CO2. During treatment experiments with human recombinant resistin (Calbiochem, UK) and/or lovastatin (Sigma, Mo.), the media was changed to 1% FBS-containing DMEM. All of the experiments to follow were performed at least three times and representative results are shown. Cells were stimulated with resistin at various doses (0, 10, 25, 50, and 100 ng/mL) for 24 hours or with a single dose at 50 ng/mL resistin. In other experiments, the microsomal triglyceride transfer protein (MTP) inhibitor, CP-346086, was administered at 1.3 nM, either alone or together with resistin (50 ng/mL) for 24 hours. Lovastatin was administered at 1 to 5 μM for 24 hours to stimulate the cells, either alone or in combination with resistin (50 ng/mL). Unless otherwise indicated, all experiments were performed in triplicate in three independent experiments.
Cell lysates collected with RIPA buffer (50 mM Tris, 150 mM sodium chloride, 1% NP-40, 12 mM sodium deoxycholate, 3.5 mM SDS, pH 7.4) and protease inhibitor cocktail (Roche Diagnostics, QC) were analyzed for human LDL receptor and PCSK9 as previously described (Rashid et al. Proc Nall Acad Sci U S A 2005; 102:5374-9). Equivalent amounts of total protein, determined by Bradford reaction was subjected to sodium dodecyl sulfate polyacrylamide gel electrophoresis (SDS-PAGE), transferred onto nitrocellulose membranes (BioRad, CA) and immunoblotted using antibodies against the LDL receptor (Fitzgerald International, CA) and PCSK9 (Cayman Chemicals, MI). Horseradish peroxidase-conjugated antibodies (BioRad, CA) were used as secondary antibodies. Immunoreactive bands were visualized with a chemiluminescence kit (PerkinElmer Life Sciences, MA). The blots were exposed to KODAK Biomax films, and the signal was quantified by densitometry using Quantity One version 4.6.7. software (Bio Rad, CA).
All of the experiments were performed at least three times and representative results are shown. Dose-response experiments were performed in HepG2 cells with 0, 10, 25, 50, 75 and 100 ng/mL of human resistin for 24 hours. Western blots were then performed on cell lysates to detect the cellular expression of LDL receptor protein.

[5] = system: HepG2 cells; experiment: apoB and apolipoprotein expression and secretion, immunoprecipitation and Western blot; type: cell-based, human; conditions: lactacystin 10 μM, 24 hours
Experimental: During experiments in which HepG2 cells were treated with human recombinant resistin (Calbiochem, UK) the media was changed to 1% FBS-containing DMEM. […] In separate experiments, cells were treated with the fatty acid, oleate (100 μM) (Sigma, ON) for 24 hours, with or without human resistin (50 ng/mL) for 24 hours. In other experiments, cells were treated with the 10 μM lactacystin (Cayman Chemical, Ann Arbor, Mich.) for 24 hours to assess intracellular proteosome-dependent apoB protein degradation.
Horseradish peroxidase-conjugated antibodies (BioRad, Hercules, Calif.) were used as secondary antibodies.
All of the experiments to follow were performed three times and representative results are shown. […] Immunoprecipitation on cell lysates and media, followed by Western blots to detect the cellular expression and secretion of human apoB protein were then performed. The constitutively expressed cellular proteins, beta-actin and albumin were used as internal immunoblot controls to confirm equal protein loading in the apoB immunoblots of cell lysates and media, respectively. […] Treatment with 25 ng/mL resistin further stimulated apoB secretion by approximately 250% compared with untreated cells (FIG. 1A).

[6] = CP-346086 1.3 nM with resistin 50 ng/mL, 24 hours

Compound: Resistin siRNA: siRNA against RETN (human resistin gene), sequence 5′CCCTAATATTTAGGGCAATAA (SEQ ID NO: 5), Qiagen (listed as DNA, chemistry not given here)
cellular LDL receptor levels [1]: very effective in increasing | cellular PCSK9 levels [1]: reduction | cellular protein levels of resistin [1]: very effective in reducing | expression of apoB [1]: reducing the expression

Compound: O=C(Nc1ccc2c(c1)CCN(Cc1ncn[nH]1)C2)c1ccccc1-c1ccc(C(F)(F)F)cc1 [CP-346086, reference compound]
cell viability [2]: did not reduce cell viability | HMG-coA reductase mRNA expression [3]: reduction | SREBP2 mRNA expression [3]: reduction | effect on LDL receptor protein levels observed with resistin treatment [4, 6]: reversed the decline | effect on PCSK9 protein levels induced by resistin [4, 6]: reversed the increase

hepatocyte LDL receptor expression ([4]; lovastatin 5 μM): increase
Compound: CC[C@H](C)C(=O)O[C@H]1C[C@@H](C)C=C2C=C[C@H](C)[C@H](CC[C@@H]3C[C@@H](O)CC(=O)O3)[C@H]21 [lovastatin, reference compound]

Compound: CC(=O)N[C@@H](CSC(=O)[C@]1([C@@H](O)C(C)C)NC(=O)[C@H](C)[C@@H]1O)C(=O)O [lactacystin, reference compound]
cellular expression and secretion of apoB [5]: increase

Reference: patent US20130252987A1, “METHOD OF REGULATING PLASMA LIPOPROTEINS” (MCMASTER UNIVERSITY, priority 2010, published 2013)
